Measured values taken from PubChem BioAssay AID2060487 (Molecular Pharmacology Branch, DTP, NCI, 2025).
“And” between values parts separate entries of the source, which are not always exact repeats. Equal entries are not always repeated. Each block holds one compound with its values, some of them ahead of it.

Test system: 997537-175-T-J1-PDC complex spheroid viability
Experiment: Anticancer human tumor 997537-175-T-J1-PDC patient-derived colon adenocarcinoma cell line growth inhibition [GQUAD]
Conditions: for viability, T/C: stronger effect = lower value
Description: DNA G-quadruplex Stabilizer Agents in Combinations in Complex Spheroids
A high-throughput screen of multi-cell type tumor spheroids was designed to identify active combinations of DNA G-quadruplex stabilizer agents and targeted small molecules. Complex spheroids include a stromal component modeled by human endothelial cells (HUVEC) and fibroblasts modeled by human mesenchymal stem cells (MSCs). The concentration ranges selected for each drug and investigational agent were based upon clinically achievable concentrations if the clinical Cmax of the agent was known.
Compounds. The drugs and investigational agents: pidnarulex (CX-5461; NSC782164), APTO-253 (NSC789042), BRACO-19 (NSC847499), peposertib (NSC802822), ceralasertib (NSC780249), elimusertib (NSC800525), camonsertib (NSC841442), AZD-1390 (NSC803789), olaparib (NSC753686), talazoparib (NSC767125), ART-558 (NSC835418), sotorasib (NSC818433), MRTX-1133 (NSC836407), SN-38 (NSC673596), topotecan (NSC609699), etoposide (NSC141540), doxorubicin (NSC123127), gemcitabine (NSC613327), 5-fluorouracil (NSC19893), paclitaxel (NSC125973), vemurafenib (NSC761431), panobinostat (NSC761190), R-306465 (JNJ-16241199; NSC773264), adavosertib (NSC754352), TP-3654 (NSC805149), carboplatin (NSC241240), KSQ-4279 (NSC840948), and staurosporine (NSC755774) were obtained from the National Cancer Institute (NCI) Developmental Therapeutics Program Chemical Repository (34). The FDA-approved anticancer drug set is available from the NCI Developmental Therapeutics Program. […] The stock solutions were prepared in dimethyl sulfoxide (DMSO, Sigma-Aldrich, St. Louis, MO, cat. D2650) at 800-fold the tested concentration and stored at -70 degrees C prior to their use. All drugs and investigational agents were tested over a range starting from a high concentration at or near the clinical Cmax and decreasing in half-log increments. If the clinical Cmax for an agent had not been determined, the highest concentration tested was 10 microM.
2.3 Cell Culture. All cells were maintained in an incubator at 37 degrees C and 5% CO2 with 95% humidity. The PDC lines were cultured according to standard operating procedures established by the NCI PDMR. All PDCs were thawed and cultured in Matrigel-coated flasks prepared with a working solution of 1X Ham's F-12 nutrient mix, without supplementation (Invitrogen, cat. 11765054), 100 U/mL penicillin-streptomycin (Invitrogen, cat. 15140122), and 2.5% Matrigel (Corning Inc., cat. 354248) for the first three passages. The 857933-349-R-J2-PDC line was cultured in 6C/Colon 1B media, which includes advanced DMEM/F-12 (Thermo Fisher Scientific, cat. 12634028), 10 mM HEPES (Thermo Fisher Scientific, cat. 15630080), 1X GlutaMAX supplement (Thermo Fisher Scientific, cat. 35050061), 0.1 mg/mL primocin (InvivoGen, cat. ant-pm-2), 10% defined fetal bovine serum, heat inactivated (HyClone Laboratories Inc., cat. SH30070.03HI), 50% L-WRN conditioned media (ATCC, cat. CRL-3276), 1.25 mM N-Acetyl-L-cysteine (Sigma-Aldrich, cat. A9165), 10 mM nicotinamide (Sigma-Aldrich, cat. N0636), 1X B-27 supplement (Thermo Fisher Scientific, cat. 17504044), 1X N-2 supplement (Thermo Fisher Scientific, cat. 17502048), 10 microM Y-27632 dihydrochloride (Tocris Bioscience, cat. 1254), and 50 ng/mL human EGF recombinant protein (Thermo Fisher Scientific, cat. PHG0311). The 485176-168-R4-J1-PDC line was cultured in Panc media, which includes all 6C/Colon 1B media components plus 100 ng/mL human FGF-10 (Thermo Fisher Scientific, cat. 100-26), 500 nM SB-431542 (Selleckchem, cat. S1067), and gastrin (Tocris, cat. 3006).
[…]

[1] = curve of first compound, second compound 0.0316 µM
[2] = curve of first compound, second compound 0.1 µM
[3] = curve of first compound, second compound 0.316 µM
[4] = curve of first compound, second compound 1 µM
[5] = curve of first compound, second compound 3.16 µM
[6] = curve of first compound, second compound 10 µM
[7] = second compound 0.0316 µM, first compound 0.0316 µM
[8] = second compound 0.0316 µM, first compound 0.1 µM
[9] = second compound 0.0316 µM, first compound 0.316 µM
[10] = second compound 0.0316 µM, first compound 1 µM
[11] = second compound 0.0316 µM, first compound 3.16 µM
[12] = second compound 0.0316 µM, first compound 10 µM
[13] = second compound 0.1 µM, first compound 0.0316 µM
[14] = second compound 0.1 µM, first compound 0.1 µM
[15] = second compound 0.1 µM, first compound 0.316 µM
[16] = second compound 0.1 µM, first compound 1 µM
[17] = second compound 0.1 µM, first compound 3.16 µM
[18] = second compound 0.1 µM, first compound 10 µM
[19] = second compound 0.316 µM, first compound 0.0316 µM
[20] = second compound 0.316 µM, first compound 0.1 µM
[21] = second compound 0.316 µM, first compound 0.316 µM
[22] = second compound 0.316 µM, first compound 1 µM
[23] = second compound 0.316 µM, first compound 3.16 µM
[24] = second compound 0.316 µM, first compound 10 µM
[25] = second compound 1 µM, first compound 0.0316 µM
[26] = second compound 1 µM, first compound 0.1 µM
[27] = second compound 1 µM, first compound 0.316 µM
[28] = second compound 1 µM, first compound 1 µM
[29] = second compound 1 µM, first compound 3.16 µM
[30] = second compound 1 µM, first compound 10 µM
[31] = second compound 3.16 µM, first compound 0.0316 µM
[32] = second compound 3.16 µM, first compound 0.1 µM
[33] = second compound 3.16 µM, first compound 0.316 µM
[34] = second compound 3.16 µM, first compound 1 µM
[35] = second compound 3.16 µM, first compound 3.16 µM
[36] = second compound 3.16 µM, first compound 10 µM
[37] = second compound 10 µM, first compound 0.0316 µM
[38] = second compound 10 µM, first compound 0.1 µM
[39] = second compound 10 µM, first compound 0.316 µM
[40] = second compound 10 µM, first compound 1 µM
[41] = second compound 10 µM, first compound 3.16 µM
[42] = second compound 10 µM, first compound 10 µM
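Also: spheroids exposed to the agents for 7 days.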
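For viability, T/C in this document: 100% = DMSO vehicle control viability.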

IC50 [1]: > 10 µM
IC50 [2]: > 10 µM
IC50 [3]: > 10 µM
IC50 [4]: > 10 µM
IC50 [5]: > 10 µM
IC50 [6]: > 10 µM
Structure (SMILES): CC(C)n1c(=O)n(C)c2cnc3cc(F)c(-c4ccc(OCCCN5CCCCC5)nc4)cc3c21 + Cc1cnc(CNC(=O)c2c(=O)c3ccc(N4CCCN(C)CC4)nc3n3c2sc2ccccc23)cn1
viability, T/C [7]: 112%
viability, T/C [8]: 91.3%
viability, T/C [9]: 104%
viability, T/C [10]: 82.3%
viability, T/C [11]: 91.9%
viability, T/C [12]: 92.5%
viability, T/C [13]: 95%
viability, T/C [14]: 95.9%
viability, T/C [15]: 91.5%
viability, T/C [16]: 82.4%
viability, T/C [17]: 82.6%
viability, T/C [18]: 90.9%
viability, T/C [19]: 101%
viability, T/C [20]: 74%
viability, T/C [21]: 101%
viability, T/C [22]: 84.8%
viability, T/C [23]: 108%
viability, T/C [24]: 93.3%
viability, T/C [25]: 95.6%
viability, T/C [26]: 113%
viability, T/C [27]: 111%
viability, T/C [28]: 80%
viability, T/C [29]: 114%
viability, T/C [30]: 105%
viability, T/C [31]: 87%
viability, T/C [32]: 104%
viability, T/C [33]: 108%
viability, T/C [34]: 105%
viability, T/C [35]: 122%
viability, T/C [36]: 110%
viability, T/C [37]: 87.8%
viability, T/C [38]: 93.4%
viability, T/C [39]: 106%
viability, T/C [40]: 116%
viability, T/C [41]: 98.5%
viability, T/C [42]: 107%

Structure (SMILES): O=C(NO)c1cnc(N2CCN(S(=O)(=O)c3ccc4ccccc4c3)CC2)nc1
viability, T/C (compound 0.0316 µM): 65.3% and 97.2% and 113%
viability, T/C (compound 0.1 µM): 24.7% and 95.1% and 86.5%
viability, T/C (compound 0.316 µM): 47.4% and 101% and 105%
viability, T/C (compound 1 µM): 41.2% and 82% and 69%
viability, T/C (compound 3.16 µM): 42.8% and 22.4% and 27.3%
viability, T/C (compound 10 µM): 23.3% and 0.34% and 0.28%

IC50 (curve of compound): > 10 µM
Structure (SMILES): COc1ncnc(C2CC2)c1-c1ncc2cnn(Cc3ccc(-c4nc(C(F)(F)F)cn4C(C)C)cc3)c2n1
viability, T/C (compound 0.0316 µM): 108% and 102% and 88.2%
viability, T/C (compound 0.1 µM): 74.8% and 112% and 95%
viability, T/C (compound 0.316 µM): 108% and 90.8% and 83.2%
viability, T/C (compound 1 µM): 75.4% and 97.9% and 84.9%
viability, T/C (compound 3.16 µM): 82.6% and 103% and 75.4%
viability, T/C (compound 10 µM): 80.2% and 58% and 77.7%

IC50 (curve of compound): 0.0105 µM and 0.0174 µM and 0.00978 µM
Structure (SMILES): CCc1c2c(nc3ccc(O)cc13)-c1cc3c(c(=O)n1C2)COC(=O)[C@]3(O)CC
viability, T/C (compound 0.000999 µM): 83.3% and 102% and 95.3%
viability, T/C (compound 0.00316 µM): 63.9% and 92% and 82.8%
viability, T/C (compound 0.00999 µM): 52.7% and 68.5% and 49%
viability, T/C (compound 0.0316 µM): 34.5% and 31.5% and 19.4%
viability, T/C (compound 0.0999 µM): 6.34% and 5.01% and 4.92%
viability, T/C (compound 0.316 µM): 2.98% and 3.42% and 6.93%

Structure (SMILES): CCCS(=O)(=O)Nc1ccc(F)c(C(=O)c2c[nH]c3ncc(-c4ccc(Cl)cc4)cc23)c1F + Cc1[nH]c2ccc(F)cc2c1-c1nc2c3cccnc3c3ncccc3c2[nH]1
IC50 [1]: 5.74 µM
IC50 [2]: 5.6 µM
IC50 [3]: 8.05 µM
IC50 [4]: 1.92 µM
IC50 [5]: 2.03 µM
IC50 [6]: 1.47 µM
viability, T/C [7]: 88.8%
viability, T/C [8]: 107%
viability, T/C [9]: 97.9%
viability, T/C [10]: 70.1%
viability, T/C [11]: 71.5%
viability, T/C [12]: 34.4%
viability, T/C [13]: 101%
viability, T/C [14]: 105%
viability, T/C [15]: 90%
viability, T/C [16]: 94.1%
viability, T/C [17]: 71.6%
viability, T/C [18]: 27.5%
viability, T/C [19]: 102%
viability, T/C [20]: 101%
viability, T/C [21]: 97.1%
viability, T/C [22]: 69.2%
viability, T/C [23]: 83.5%
viability, T/C [24]: 41.8%
viability, T/C [25]: 98.2%
viability, T/C [26]: 97.4%
viability, T/C [27]: 101%
viability, T/C [28]: 73.4%
viability, T/C [29]: 33.1%
viability, T/C [30]: 30.7%
viability, T/C [31]: 86%
viability, T/C [32]: 81%
viability, T/C [33]: 88%
viability, T/C [34]: 72.8%
viability, T/C [35]: 35.4%
viability, T/C [36]: 16.5%
viability, T/C [37]: 72.4%
viability, T/C [38]: 82.5%
viability, T/C [39]: 71.8%
viability, T/C [40]: 63.3%
viability, T/C [41]: 17.7%
viability, T/C [42]: 28.9%
